# System: batrachotoxin (BTX) binding site of the sodium channel
# Test: Affinity to the batrachotoxin (BTX) binding site of the sodium channel
# Design: species or system rat
# Conditions: [3H]-batrachotoxinin A20 α-benzoate 10 nM; synaptosomes from rat cerebral cortex; test concentration not given
row,SMILES,BTX inhibition (rat) (% inhibition)
1,"CCCCN(C(=O)c1cccc(Cl)c1)c1nc2n(c1C(=O)NC(COC)Cc1ccccc1)CCCC2 (centres unmarked) [Example 86, 2-[butyl-(3-chloro-benzoyl)-amino]-5,6,7,8-tetrahydro-imidazo[1,2-a]pyridine-3-carboxylic acid (1-methoxymethyl-2-phenyl-ethyl)-amide]",42%
2,"CCCCN(C(=O)c1cccc(Cl)c1)c1nc2n(c1C(=O)N(C)C1CCN(Cc3c(Cl)cccc3Cl)C1)CCCC2 (centres unmarked) [Example 87, 2-[butyl-(3-chloro-benzoyl)-amino]-5,6,7,8-tetrahydro-imidazo[1,2-a]pyridine-3-carboxylic acid [1-(2,6-dichloro-benzyl)-pyrrolidin-3-yl]-methyl-amide]",93%
3,"CCCCN(C(=O)c1ccc(F)c(F)c1)c1nc2n(c1C(=O)NCc1ccccc1OC(F)(F)F)CCCC2 [Example 88, 2-[butyl-(3,4-difluoro-benzoyl)-amino]-5,6,7,8-tetrahydro-imidazo[1,2-a]pyridine-3-carboxylic acid 2-trifluoromethoxy-benzylamide]",31%
4,CCCCN(C(=O)c1cccc(Cl)c1)c1nc2n(c1C(=O)N[C@H](C(=O)OCc1ccccc1)C(C)C)CCCC2 [Example 91],48%
5,"CCCCN(C(=O)c1cccc(Cl)c1)c1nc2n(c1C(=O)NCCSCc1c(Cl)cccc1Cl)CCCC2 [Example 95, 2-[butyl-(3-chloro-benzoyl)-amino]-5,6,7,8-tetrahydro-imidazo[1,2-a]pyridine-3-carboxylic acid [2-(2,6-dichlor-benzylsulphanyl)-ethyl]-amide]",68%
6,"CCCCN(C(=O)c1ccc(F)c(F)c1)c1nc2n(c1C(=O)NCC1COc3ccccc3O1)CCCC2 (centres unmarked) [Example 96, 2-[butyl-(3,4-difluoro-benzoyl)-amino]-5,6,7,8-tetrahydro-imidazo[1,2-a]pyridine-3-carboxylic acid (2,3-dihydro-benzo[1,4]dioxin-2-ylmethyl)-amide]",33%
7,"CN(C(=O)c1cccc2ccccc12)c1nc2n(c1C(=O)NCc1ccccc1OC(F)(F)F)CCCC2 [Example 99, 2-[methyl-(naphthalene-1-carbonyl)-amino]-5,6,7,8-tetrahydro-imidazo[1,2-a]pyridine-3-carboxylic acid 2-trifluoromethoxy-benzylamide]",33%
8,"Cc1ccc(C)c(N2CCN(C(=O)c3c(N(C)C(=O)c4cccc(Cl)c4)nc4n3CCCC4)CC2)c1 [Example 100, 3-chloro-N-{3-[4-(2,5-dimethyl-phenyl)-piperazine-1-carbonyl]-5,6,7,8-tetrahydro-imidazo[1,2-a]pyridin-2-yl}-N-methyl-benzamide]",74%
9,"CN(C(=O)c1ccccc1)c1nc2n(c1C(=O)NC1CCN(Cc3c(Cl)cccc3Cl)C1)CCCC2 (centres unmarked) [Example 101, 2-(benzoyl-methyl-amino)-5,6,7,8-tetrahydro-imidazo[1,2-a]pyridine-3-carboxylic acid [1-(2,6-dichloro-benzyl)-pyrrolidin-3-yl]-amide]",54%
10,"CN(C(=O)c1cccc(Cl)c1)c1nc2n(c1C(=O)N1CCN(CCc3ccccc3)CC1)CCCC2 [Example 106, 3-chloro-N-methyl-N-[3-(4-phenethyl-piperazine-1-carbonyl)-5,6,7,8-tetrahydro-imidazo[1,2-a]pyridin-2-yl]-benzamide]",40%
11,"CCCCN(C(=O)c1cccc(Cl)c1)c1nc2n(c1C(=O)NCCOc1ccccc1)CCCC2 [Example 107, 2-[butyl-(3-chloro-benzoyl)-amino]-5,6,7,8-tetrahydro-imidazo[1,2-a]pyridine-3-carboxylic acid (2-phenoxy-ethyl)-amide]",39%
12,"CN(C(=O)c1cccc2ccccc12)c1nc2n(c1C(=O)N1CCN(Cc3cc4ccccc4o3)CC1)CCCC2 [Example 108, naphthalene-1-carboxylic acid [3-(4-benzofuran-2-ylmethyl-piperazine-1-carbonyl)-5,6,7,8-tetrahydro-imidazo[1,2-a]pyridin-2-yl]-methyl-amide]",41%
13,"CCCCN(C(=O)c1cccc(Cl)c1)c1nc2n(c1C(=O)NCc1cccc(C)c1)CCCC2 [Example 113, 2-[butyl-(3-chloro-benzoyl)-amino]-5,6,7,8-tetrahydro-imidazo[1,2-a]pyridine-3-carboxylic acid 3-methyl-benzylamide]",31%
14,"CCCCN(C(=O)c1ccc(F)c(F)c1)c1nc2n(c1C(=O)N1CCN(c3cc(Cl)ccc3C)CC1)CCCC2 [Example 119, N-butyl-N-{3-[4-(5-chloro-2-methyl-phenyl)-piperazine-1-carbonyl]-5,6,7,8-tetrahydro-imidazo[1,2-a]pyridin-2-yl}-3,4-difluoro-benzamide]",83%
15,"CCCCN(C(=O)c1cccc(Cl)c1)c1nc2n(c1C(=O)NC1CCCCC1)CCCC2 [Example 120, 2-[butyl-(3-chloro-benzoyl)-amino]-5,6,7,8-tetrahydro-imidazo[1,2-a]pyridine-3-carboxylic acid cyclohexylamide]",61%
16,"CCCCN(C(=O)c1cccc(Cl)c1)c1nc2n(c1C(=O)NC1CCCCC1OCc1ccccc1)CCCC2 (centres unmarked) [Example 124, 2-[butyl-(3-chloro-benzoyl)-amino]-5,6,7,8-tetrahydro-imidazo[1,2-a]pyridine-3-carboxylic acid (2-benzyloxy-cyclohexyl)-amide]",48%
17,"CCCCN(C(=O)c1cccc(Cl)c1)c1nc2n(c1C(=O)NCc1ccc(OC(F)(F)F)cc1)CCCC2 [Example 127, 2-[butyl-(3-chloro-benzoyl)-amino]-5,6,7,8-tetrahydro-imidazo[1,2-a]pyridine-3-carboxylic acid 4-trifluoromethoxy-benzylamide]",60%
18,"CN(C(=O)c1cccc(Cl)c1)c1nc2n(c1C(=O)NCCC(c1ccccc1)c1ccccc1)CCCC2 [Example 128, 2-[(3-chloro-benzoyl)-methyl-amino]-5,6,7,8-tetrahydro-imidazo[1,2-a]pyridine-3-carboxylic acid (3,3-diphenyl-propyl)-amide]",85%
19,"CN(C(=O)c1cccc(Cl)c1)c1nc2n(c1C(=O)Nc1ccc(OCc3ccccc3)cc1)CCCC2 [Example 129, 2-[(3-chloro-benzoyl)-methyl-amino]-5,6,7,8-tetrahydro-imidazo[1,2-a]pyridine-3-carboxylic acid (4-benzyloxy-phenyl)-amide]",76%
20,"CCOc1ccc(Br)cc1CN1CCN(C(=O)c2c(N(C)C(=O)Cc3ccccc3)nc3n2CCCC3)CC1 [Example 130, N-{3-[4-(5-bromo-2-ethoxy-benzyl)-piperazine-1-carbonyl]-5,6,7,8-tetrahydro-imidazo[1,2-a]pyridin-2-yl}-N-methyl-2-phenyl-acetamide]",67%
21,"CCCCN(C(=O)c1cccc(Cl)c1)c1nc2n(c1C(=O)NCc1cccc(C)c1C)CCCC2 [Example 133, 2-[butyl-(3-chloro-benzoyl)-amino]-5,6,7,8-tetrahydro-imidazo[1,2-a]pyridine-3-carboxylic acid 2,3-dimethyl-benzylamide]",34%
22,"CCCCN(C(=O)c1cccc(Cl)c1)c1nc2n(c1C(=O)NCCc1ccc(Oc3ccccc3)cc1)CCCC2 [Example 134, 2-[butyl-(3-chloro-benzoyl)-amino]-5,6,7,8-tetrahydro-imidazo[1,2-a]pyridine-3-carboxylic acid [2-(4-phenoxy-phenyl)-ethyl]-amide]",93%
23,"CCc1ccccc1N1CCN(C(=O)c2c(N(C)C(=O)c3cccc4ccccc34)nc3n2CCCC3)CC1 [Example 136, naphthalene-1-carboxylic acid {3-[4-(2-ethyl-phenyl)-piperazine-1-carbonyl]-5,6,7,8-tetrahydro-imidazo[1,2-a]pyridin-2-yl}-methyl-amide]",54%
24,"CCCCN(C(=O)c1ccc(F)c(F)c1)c1nc2n(c1C(=O)N1CCN(Cc3ccc4c(c3)OCO4)CC1)CCCC2 [Example 137, N-[3-(4-benzo[1,3]dioxol-5-ylmethyl-piperazine-1-carbonyl)-5,6,7,8-tetrahydro-imidazo[1,2-a]pyridin-2-yl]-N-butyl-3,4-difluor-benzamide]",72%
25,"CCCCN(C(=O)c1ccc(F)c(F)c1)c1nc2n(c1C(=O)N1CCN(c3cc(C)ccc3C)CC1)CCCC2 [Example 138, N-butyl-N-{3-[4-(2,5-dimethyl-phenyl)-piperazine-1-carbonyl]-5,6,7,8-tetrahydro-imidazo[1,2-a]pyridin-2-yl}-3,4-difluoro-benzamide]",80%
26,"CN(C(=O)c1cccc2ccccc12)c1nc2n(c1C(=O)NC(c1ccccc1)c1ccc(Cl)cc1)CCCC2 (centres unmarked) [Example 139, 2-[methyl-(naphthalene-1-carbonyl)-amino]-5,6,7,8-tetrahydro-imidazo[1,2-a]pyridine-3-carboxylic acid [(4-chlor-phenyl)-phenyl-methyl]-amide]",73%
27,"CCCCN(C(=O)c1cccc(Cl)c1)c1nc2n(c1C(=O)N1CCN(Cc3ccc(Cl)cc3)CC1)CCCC2 [Example 140, N-butyl-3-chloro-N-{3-[4-(4-chloro-benzyl)-piperazine-1-carbonyl]-5,6,7,8-tetrahydro-imidazo[1,2-a]pyridin-2-yl}-benzamide]",81%
28,"CCCCN(C(=O)c1cccc(Cl)c1)c1nc2n(c1C(=O)NC(C)c1ccc3ccccc3c1)CCCC2 (centres unmarked) [Example 141, 2-[butyl-(3-chloro-benzoyl)-amino]-5,6,7,8-tetrahydro-imidazo[1,2-a]pyridine-3-carboxylic acid (1-naphthalen-2-yl-ethyl)-amide]",41%
29,"CN(C(=O)c1cccc2ccccc12)c1nc2n(c1C(=O)N1CCc3c([nH]c4ccccc34)C1)CCCC2 [Example 144, naphthalene-1-carboxylic acid methyl-[3-(1,3,4,9-tetrahydro-b-carboline-2-carbonyl)-5,6,7,8-tetrahydro-imidazo[1,2-a]pyridin-2-yl]-amide]",31%

# Reference: patent US7829568B2, “Substituted 5,6,7,8-tetrahydroimidazo[1,2-a]pyridin-2-ylamine compounds and their use for producing drugs” (Gruenenthal GmbH, priority 2005, dated 2010)
